Experimental data as given in US20040229791A1, “Compositions and methods of modulating TGF-beta activity by fatty acids” (priority 2002, published 2004).

Legend:
Assay type in all cases: binding
[1] = biological target: T1, 125I-TGF-β1-α2M* complex (Homo sapiens, UniProt P01023); assay: Dissociation of preformed 125I-TGF-β1-α2M* complex; details: added after 30 min preincubation of complex
T1 construct: was purified from pooled citrate-treate human plasma; from tissue; host or cells: pooled citrate-treated human plasma
T1 sequence (P01023 24-1474): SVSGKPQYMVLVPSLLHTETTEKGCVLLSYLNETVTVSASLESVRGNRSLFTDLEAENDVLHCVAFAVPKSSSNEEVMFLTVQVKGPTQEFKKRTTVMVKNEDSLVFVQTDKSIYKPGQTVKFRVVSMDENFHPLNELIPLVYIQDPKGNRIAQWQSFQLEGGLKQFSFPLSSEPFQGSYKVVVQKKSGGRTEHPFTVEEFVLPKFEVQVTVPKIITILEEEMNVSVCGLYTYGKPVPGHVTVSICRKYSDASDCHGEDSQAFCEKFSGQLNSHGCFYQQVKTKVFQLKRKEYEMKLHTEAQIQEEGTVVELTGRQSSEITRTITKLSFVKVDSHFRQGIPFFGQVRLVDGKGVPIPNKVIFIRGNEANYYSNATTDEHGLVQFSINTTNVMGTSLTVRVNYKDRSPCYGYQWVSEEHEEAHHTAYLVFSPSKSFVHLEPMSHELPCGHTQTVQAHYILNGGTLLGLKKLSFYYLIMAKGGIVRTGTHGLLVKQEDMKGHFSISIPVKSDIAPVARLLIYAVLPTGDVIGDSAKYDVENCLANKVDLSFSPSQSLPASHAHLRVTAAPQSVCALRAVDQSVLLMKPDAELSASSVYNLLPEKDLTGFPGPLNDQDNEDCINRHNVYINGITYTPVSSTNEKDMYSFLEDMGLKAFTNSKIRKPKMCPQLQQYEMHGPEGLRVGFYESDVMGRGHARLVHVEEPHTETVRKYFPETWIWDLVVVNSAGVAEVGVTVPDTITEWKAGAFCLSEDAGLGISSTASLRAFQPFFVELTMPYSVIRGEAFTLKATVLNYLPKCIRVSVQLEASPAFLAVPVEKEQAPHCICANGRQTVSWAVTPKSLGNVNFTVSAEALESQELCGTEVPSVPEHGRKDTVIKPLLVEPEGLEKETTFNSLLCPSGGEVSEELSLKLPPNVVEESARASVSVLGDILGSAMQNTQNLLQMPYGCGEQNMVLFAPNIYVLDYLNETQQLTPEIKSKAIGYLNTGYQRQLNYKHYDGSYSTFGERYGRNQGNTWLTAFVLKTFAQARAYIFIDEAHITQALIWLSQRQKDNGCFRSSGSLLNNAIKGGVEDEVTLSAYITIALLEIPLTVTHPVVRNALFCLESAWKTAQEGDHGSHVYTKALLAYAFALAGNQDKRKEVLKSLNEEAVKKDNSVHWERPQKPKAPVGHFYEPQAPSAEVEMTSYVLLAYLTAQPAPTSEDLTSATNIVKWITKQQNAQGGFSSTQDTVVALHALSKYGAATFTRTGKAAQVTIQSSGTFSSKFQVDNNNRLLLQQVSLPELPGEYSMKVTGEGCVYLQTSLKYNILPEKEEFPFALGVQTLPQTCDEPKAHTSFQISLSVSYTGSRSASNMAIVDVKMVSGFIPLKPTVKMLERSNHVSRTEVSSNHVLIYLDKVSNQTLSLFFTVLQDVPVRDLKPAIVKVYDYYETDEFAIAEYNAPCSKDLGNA
Method: To determine whether fatty acids are capable of dissociating TGF- ? - ? 2M* complexes, various concentrations of arachidonic acid were added to a reaction mixture containing ^125I-TGF- ? 1 or ^125I-TGF ? β3 and α2M* which had been preincubated at room temperature for 30 mi 30 minutes at room temperature, the ^125I-TGF ? β isoform-α2M* complexes in the reaction mixtures were analyzed by 5% non-denaturing PAGE. […] However, lower concentrations of arachidonic acid were effective in inhibiting complex formation of ^125I-TGF- ? 1 and α2M* than were required to dissociate the ^125I-TGF- ? 1- ? 2M* complex.

[2] = biological target: T2, 125I-TGF-β2-α2M* complex (Homo sapiens, UniProt P01023); assay: Dissociation of preformed 125I-TGF-β2-α2M* complex; details: added after 30 min preincubation of complex
T2 construct: was purified from pooled citrate-treate human plasma; from tissue; host or cells: pooled citrate-treated human plasma
T2 sequence (P01023 24-1474): T1 sequence (P01023 24-1474)

[3] = biological target: T3, α2M* and nerve growth factor (NGF) (Homo sapiens, UniProt P01023); assay: Complex formation between α2M* and nerve growth factor
T3 sequence (P01023 24-1474): T1 sequence (P01023 24-1474)

[4] = biological target: T4, α2M* and basic fibroblast growth factor (bFGF) (Homo sapiens, UniProt P01023); assay: Complex formation between α2M* and basic fibroblast growth factor
T4 sequence (P01023 24-1474): T1 sequence (P01023 24-1474)

CCCCC/C=C\C/C=C\C/C=C\C/C=C\CCCC(=O)O [arachidonic acid]
dissociation of the 125I-TGF-β1-α2M* complex [1]: able to dissociate
concentration dissociating the 125I-TGF-β2-α2M* complex [2]: 250 µM
blocking of complex formation between α2M* and NGF [3]: block complex formation
blocking of complex formation between α2M* and bFGF [4]: block complex formation
